Measurements taken from patent US10342796B2, “Acrylanilide derivative, preparation method, and applications thereof in pharmacy” (Ancureall Pharmaceutical (Shanghai) Co., Ltd., priority 2015, dated 2019).

Experiments:
Assay in all cases: Growth inhibition GI50 in vitro (CCK8/MTT, 72 h)
Assay type in all cases: cell-based, human
H1975 (EGFR L858R/T790M) = settings: Homo sapiens, NCI-H1975; Table 13, 72 h; read-out: Range of GI50 H1975 (EGFR L858R/T790M)
Procedure: (§1) PC-9ER is an acquired Erlotinib resistance cell line of PC-9 cells developed by the investor. […] The four cell lines above were cultured with 1×RPMI1640 complete medium (supplement with 10% FBS). Human colon cancer cell line SW48 (EGFR G719S positive, ATCC). was cultured with L15 complete medium (10% FB S).
(§2) The suspension cells were collected by centrifugation. The supernatant was discard and the cell pellet was resuspended and counted. Different cell concentrations (5˜10×10^4 cells/mL) were prepared according to the growth cycle of each cell line and then seeded on a 96-well plate (Corning), 100 μL/well. The cells were incubated over night at 37° C., 5% CO2. The compounds were added to the cells on the second day with 2 wells in parallel. The final concentration of organic solvent shall not exceed 1%. The cells were continually incubated for 72 h, and then subjected to MTT assay.
(§3) The present compounds and the reference compounds were dissolved with DMSO (Sigma), respectively. […] The storage concentration of compounds was 10 mM and kept at −20° C. They were diluted by 2 times or 10 times with serial dilution before using.
(§4) Dojindo CCK8 reagent kit was used as MTT assay. […] FC meter was used as microplate reader.
(§5) Adherent cell culture medium was discard and immediately replaced with fresh prepared medium which contains 10% CCK8 reagent (100 μL/well). For the suspension cells, CCK8 was directly added to 10% of the final concentration. The cells were continually incubated for 1˜4 h. When the color of control wells turned to dark yellow, the absorption value was measured at OD450 nm. The cell growth rate was calculated according to the following formula: cell growth rate (%)=100*(T−T0)/(C−T0), T=optical density of drug treatment cell well—optical density of blank control well; T0=optical density of cell well before drug treatment—optical density of blank control well; C=optical density of cell well of solvent control group—optical density of blank control well. […] The experiment was independently repeated 1˜3 times, and subject to biological statistical analysis.

PC-9 (EGFR dE746-A750) = settings: Homo sapiens; Table 13, 72 h; read-out: Range of GI50 PC-9 (EGFR dE746-A750)
Procedure: as §1, §2, §3, §4, §5

N87 (HER2 Amp) = settings: Homo sapiens; Table 13, 72 h; read-out: Range of GI50 N87 (HER2 Amp)
A549 (EGFR WT) = settings: Homo sapiens, A549; Table 13, 72 h; read-out: Range of GI50 A549 (EGFR WT)
Excerpt: EGFR wild type cell lines: human epidermal cancer cell line A431 (EGFR WT, amplification and high expression, from Shanghai Cell Bank of Chinese Academy of Sciences and ATCC), NSCLC cell lines NCI-H460 (EGFR WT, Kras G61H and PI3KCA E545K mutants, ATCC) and NCI-H1299 (EGFR WT, ATCC), melanoma cell line A375 (EGFR WT and BRAF V600E mutant, from Shanghai Cell Bank of Chinese Academy of Sciences, ATCC), human lung cancer cell line NCI-H292 (EGFR WT, from human lung mucoepidermoid carcinoma/lymphatic metastasis, purchased from Shanghai Cell Bank of Chinese Academy of Sciences) were cultured with 1×RPMI1640 complete medium which was supplement with 10% FBS. NSCLC cell line A549 (EGFR WT and Kras G12S mutant, from Shanghai Cell Bank of Chinese Academy of Sciences) was cultured with 1×Ham'S F12K complete medium which was supplement with 10% FBS, 1% double-antibiotics and 2 mM glutamine.
as §2, §3, §4, §5

Row | SMILES | GI50 (H1975 (EGFR L858R/T790M)) | GI50 (PC-9 (EGFR dE746-A750)) | GI50 (N87 (HER2 Amp)) | GI50 (A549 (EGFR WT))
1 | C=CC(=O)Nc1cc(Nc2cc(Nc3ccc(OC)c(Cl)c3)ncn2)c(OC)cc1N1CCN(C2CCN(C)CC2)CC1 [Compound 227, N-(5-(6-(3-chloro-4-methoxyl-phenylamino)-pyrimidin-4-ylamino)-2-(4-(1-methylpiperidin-4-yl)-piperazin-1-yl)-4-methoxyl-phenyl)-acrylamide] | 100 to 1000 nM | < 10 nM | 10 to 100 nM | > 1000 nM
2 | C=CC(=O)Nc1cc(Nc2nccc(-n3ccc4c(OCCCCCC)cccc43)n2)c(OC)cc1N(C)CCN(C)C [Compound 206, N-(5-(4-(4-n-hexyloxy-1H-indol-1-yl)-pyrimidin-2-ylamino)-2-(2-(dimethylamino-ethyl)-methyl-amino)-4-methoxyl-phenyl)-acrylamide] | 100 to 1000 nM | 100 to 1000 nM | 100 to 1000 nM | > 1000 nM
3 | C=CC(=O)Nc1cc(Nc2nccc(-n3ccc4c(-n5c(C)ccc5C)cc(Br)cc43)n2)c(OC)cc1N(C)CCN(C)C [Compound 214] | 10 to 100 nM | 10 to 100 nM | 10 to 100 nM | > 1000 nM
4 | C=CC(=O)Nc1cc(Nc2cc(Nc3ccc(OCC4CCCO4)c(Cl)c3)ncn2)c(OC)cc1N(C)CCN(C)C (stereo not shown) [Compound 254, N-(5-(6-(3-chloro-4-(tetrahydrofuran-2-ylmethoxy)-phenylamino)-pyrimidin-4-ylamino)-2-((2-dimethylamino-ethyl)-methyl-amino)-4-methoxyl-phenyl)-acrylamide] | 10 to 100 nM | 10 to 100 nM | 10 to 100 nM | > 1000 nM
5 | C=CC(=O)Nc1cc(Nc2nccc(-n3ccc4c(O)cccc43)n2)c(OC)cc1N(C)CCN(C)C [Compound 204, N-(5-(4-(4-hydroxyl-1H-indol-1-yl)-pyrimidin-2-ylamino)-2-(2-(dimethylamino-ethyl)-methyl-amino)-4-methoxyl-phenyl)-acrylamide] | 10 to 100 nM | 10 to 100 nM | < 10 nM | > 1000 nM
6 | C=CC(=O)Nc1cc(Nc2cc(Nc3ccc(OC)c(Cl)c3)ncn2)c(OC)cc1OCCN(C)C [Compound 218, N-(5-(6-(3-chloro-4-methoxyl-phenylamino)-pyrimidin-4-ylamino)-2-(2-dimethylamino-ethoxyl)-4-methoxyl-phenyl)-acrylamide] | 10 to 100 nM | < 10 nM | 10 to 100 nM | > 1000 nM
7 | C=CC(=O)Nc1cc(Nc2nccc(-n3ccc4c(OCC5CCCO5)cccc43)n2)c(OC)cc1N(C)CCN(C)C (stereo not shown) [Compound 207, N-(5-(4-(4-((tetrahydrofuran-2-yl)-methoxyl)-1H-indol-1-yl)-pyrimidin-2-ylamino)-2-(2-(dimethylamino-ethyl)-methyl-amino)-4-methoxyl-phenyl)-acrylamide] | 10 to 100 nM | 10 to 100 nM | 10 to 100 nM | > 1000 nM
8 | C=CC(=O)Nc1cc(Nc2cc(Nc3ccc(OC)c(C(C)=O)c3)ncn2)c(OC)cc1N(C)CCN(C)C [Compound 256, N-(5-(6-(3-acetyl-4-methoxyphenylamino)-pyrimidin-4-yl-amino)-2-((2-dimethylamino-ethyl)-methyl-amino)-4-methoxyl-phenyl)-acrylamide] | 10 to 100 nM | 10 to 100 nM | 10 to 100 nM | > 1000 nM
9 | C=CC(=O)Nc1cc(Nc2cc(Nc3cc(OC)c(Cl)cc3Cl)ncn2)c(OC)cc1OCCCN1CCCC1 [Compound 245] | 10 to 100 nM | 10 to 100 nM | 10 to 100 nM | > 1000 nM
10 | C=CC(=O)Nc1cc(Nc2cc(Nc3ccc(C(F)(F)F)c(Cl)c3)ncn2)c(OC)cc1N(C)CCN(C)C [Compound 234, N-(5-(6-(3-chloro-4-trifluoromethyl-phenylamino)-pyrimidin-4-yl-amino)-2-((2-dimethylamino-ethyl)-methyl-amino)-4-methoxyl-phenyl)-acrylamide] | 10 to 100 nM | 10 to 100 nM | 10 to 100 nM | > 1000 nM
11 | C=CC(=O)Nc1cc(Nc2cc(Nc3ccc(OC(C)(C)C)c(Cl)c3)ncn2)c(OC)cc1N(C)CCN(C)C [Compound 250, N-(5-(6-(3-chloro-4-tert-butoxy-phenylamino)-pyrimidin-4-yl-amino)-2-((2-dimethylamino-ethyl)-methyl-amino)-4-methoxyl-phenyl)-acrylamide] | 10 to 100 nM | < 10 nM | < 10 nM | > 1000 nM
12 | C=CC(=O)Nc1cc(Nc2cc(Nc3cc(OC)c(Cl)cc3Cl)ncn2)c(OC)cc1OCCN(C)C [Compound 242, N-(5-(6-(2,4-dichloro-5-methoxyl-phenylamino)-pyrimidin-4-ylamino)-2-(2-dimethylamino-ethoxyl)-4-methoxyl-phenyl)-acrylamide] | < 10 nM | < 10 nM | < 10 nM | > 1000 nM
13 | C=CC(=O)Nc1cc(Nc2cc(Nc3ccc(OCc4nccs4)c(Cl)c3)ncn2)c(OC)cc1N(C)CCN(C)C [Compound 223, N-(5-(6-(3-chloro-4-(thiazol-2-ylmethoxy)-phenylamino)-pyrimidin-4-ylamino)-2-((2-dimethylamino-ethyl)-methyl-amino)-4-methoxyl-phenyl)-acrylamide] | 10 to 100 nM | 10 to 100 nM | 10 to 100 nM | > 1000 nM
14 | C=CC(=O)Nc1cc(Nc2cc(Nc3ccc(OCCC(C)C)c(Cl)c3)ncn2)c(OC)cc1N(C)CCN(C)C [Compound 219, N-(5-(6-(3-chloro-4-(3-methylbutoxy)-phenylamino)-pyrimidin-4-ylamino)-2-((2-dimethylaminoethyl)-methyl-amino)-4-methoxyphenyl)-acrylamide] | 10 to 100 nM | < 10 nM | 10 to 100 nM | > 1000 nM
15 | C=CC(=O)Nc1cc(Nc2cc(Nc3ccc(O)c(Cl)c3)ncn2)c(OC)cc1N(C)CCN(C)C [Compound 253, N-(5-(6-(3-chloro-4-hydroxylphenylamino)-pyrimidin-4-ylamino)-2-((2-dimethylamino-ethyl)-methyl-amino)-4-methoxyl-phenyl)-acrylamide] | 10 to 100 nM | 10 to 100 nM | 10 to 100 nM | > 1000 nM
16 | C=CC(=O)Nc1cc(Nc2nccc(-n3ccc4c(OC)cccc43)n2)c(OC)cc1N1CCC(N2CCN(C)CC2)CC1 [Compound 208, N-(5-(4-(4-methoxyl-1H-indol-1-yl)-pyrimidin-2-ylamino)-2-(4-(4-methyl-piperazin-1-yl)-piperidin-1-yl)-4-methoxyl-phenyl)-acrylamide] | 100 to 1000 nM | 100 to 1000 nM | 10 to 100 nM | > 1000 nM
17 | C=CC(=O)Nc1cc(Nc2cc(Nc3ccc(OC)c(C#N)c3)ncn2)c(OC)cc1N(C)CCN(C)C [Compound 255, N-(5-(6-(3-cyano-4-methoxyphenylamino)-pyrimidin-4-yl-amino)-2-((2-dimethylamino-ethyl)-methyl-amino)-4-methoxyl-phenyl)-acrylamide] | 10 to 100 nM | 10 to 100 nM | 10 to 100 nM | > 1000 nM
18 | C=CC(=O)Nc1cc(Nc2cc(Nc3ccc(OC(F)(F)F)c(Cl)c3)ncn2)c(OC)cc1N(C)CCN(C)C [Compound 235, N-(5-(6-(3-chloro-4-trifluoromethoxy-phenylamino)-pyrimidin-4-yl-amino)-2-((2-dimethylamino-ethyl)-methyl-amino)-4-methoxyl-phenyl)-acrylamide] | 10 to 100 nM | 10 to 100 nM | 10 to 100 nM | > 1000 nM
19 | C=CC(=O)Nc1cc(Nc2cc(Nc3ccc(OC)c(C(F)(F)F)c3)ncn2)c(OC)cc1N(C)CCN(C)C [Compound 222, N-(5-(6-(4-methoxyl-3-trifluoromethyl-phenylamino)-pyrimidin-4-yl-amino)-2-((2-dimethylamino-ethyl)-methyl-amino)-4-methoxyl-phenyl)-acrylamide] | 10 to 100 nM | < 10 nM | 10 to 100 nM | > 1000 nM
